From patent publication US20250108066A1, “TRINUCLEOTIDE CAP ANALOGS AND METHODS OF USE THEREOF” (TriLink BioTechnologies, LLC, priority 2022, published 2025)

Tested on: CD-1 mice
Test: In vivo luciferase expression in mice injected with LNP:mRNA (Fluc mRNA capped with cap analog), whole-body bioluminescence imaging
Details: female CD-1 mice, LNP:mRNA 1 mg/kg single tail-vein bolus; for in vivo luciferase expression as compared to m7GpppA2′OMepG (Control): integrated flux from 3-48 hours, FIG. 2; for in vivo luciferase expression (translation) as compared to the same compound lacking the 3′OMe group on the m7G: pairwise comparison 3′OMe vs 3′OH on m7G, FIG. 4 / FIG. 2
Protocol: Female CD-1 mice of 8-9 weeks old were randomized into groups of five animals based on body weight at the beginning of the study (Charles River Laboratories, Discovery Research Services North Carolina). Lipid nanoparticle formulations including mRNA (capped using a cap analog recited in Table 1, N1-methylpseudouridine-5′-Triphosphate (N1-me-PsU) modified firefly luciferase (Fluc) mRNA) (LNP:mRNA) test articles were diluted in PBS to achieve 1 mg/kg delivery in a single bolus by tail-vein injection. The body weight of each mouse was measured once a day for the duration of the study and two blood draws were taken for serum analysis by Mouse Cytokine/Chemokine 26-Plex ProcartaPlex Panel 1 by Luminex platform (Thermo Fisher Scientific; Waltham, MA). Luciferase activity was measured by whole-body bioluminescence imaging on IVIS Spectrum CT system by Perkin Elmer (Greenville, SC) at six time points post mRNA injection (3 hours, 6 hours, 9 hours, 12 hours, 24 hours, and 48 hours hours post-injection). D-luciferin was delivered by intraperitoneal injection 10 minutes prior to each imaging session (150 mg/kg total). The measured luciferase expression results are shown in FIG. 2, showing the integrated flux from 3-48 hours. […] Luminescence intensity scale is on the left.

Row | SMILES | in vivo luciferase expression as compared to m7GpppA2′OMepG (Control) | in vivo luciferase expression (translation) as compared to the same compound lacking the 3′OMe group on the m7G
1 | C[n+]1cn([C@@H]2O[C@H](COP(=O)(O)OP(=O)([O-])OP(=O)(O)OC[C@]34COC(C3OP(=O)(O)OC[C@H]3O[C@@H](n5cnc6c(=O)[nH]c(N)nc65)C(O)C3O)[C@H](n3cnc5c(N)ncnc53)O4)C(O)C2O)c2nc(N)[nH]c(=O)c21 (stereo in doubt) [Compound 1, ^m7GpppA2′,4′-LNApG] | increased in vivo luciferase expression | –
2 | COC1C(O)[C@H](n2c[n+](C)c3c(=O)[nH]c(N)nc32)O[C@@H]1COP(=O)(O)OP(=O)([O-])OP(=O)(O)OC[C@]12COC(C1OP(=O)(O)OC[C@H]1O[C@@H](n3cnc4c(=O)[nH]c(N)nc43)C(O)C1O)[C@H](n1cnc3c(N)ncnc31)O2 (stereo in doubt) [Compound 2, ^m7G3′OMepppA2′,4′-LNApG] | increased in vivo luciferase expression | increased luciferase expression in vivo
3 | COC1C(OP(=O)(O)OC[C@H]2O[C@@H](n3cnc4c(=O)[nH]c(N)nc43)C(O)C2O)[C@@H](COP(=O)(O)OP(=O)([O-])OP(=O)(O)OC[C@H]2O[C@@H](n3c[n+](C)c4c(=O)[nH]c(N)nc43)C(O)C2OC)O[C@H]1n1cnc2c(N)nc(N)nc21 (stereo in doubt) [Compound 8, ^m7G3′OMeppp(diaminopurine)2′OMepG] | increased in vivo luciferase expression | increased luciferase expression in vivo
4 | COC1C(OP(=O)(O)OC[C@H]2O[C@@H](n3cnc4c(=O)[nH]c(N)nc43)C(O)C2O)[C@@H](COP(=O)(O)OP(=O)([O-])OP(=O)(O)OC[C@H]2O[C@@H](n3c[n+](C)c4c(=O)[nH]c(N)nc43)C(OC)C2OC)O[C@H]1n1cnc2c(N)ncnc21 (stereo in doubt) [Compound 25, ^m7G2′OMe3′OMepppA2′OMepG] | – | increased luciferase expression in vivo
5 | COC1[C@@H](OP(=O)(O)OC[C@H]2O[C@@H](n3cnc4c(=O)[nH]c(N)nc43)C(O)[C@H]2O)[C@@H](/C=C/P(=O)(O)OP(=O)([O-])OP(=O)(O)OC[C@H]2O[C@@H](n3c[n+](C)c4c(=O)[nH]c(N)nc43)C(O)[C@H]2OC)O[C@H]1n1cnc2c(N)ncnc21 (stereo partly drawn) [Compound 5, ^m7G3′-OMepppA2′OMe-5′vinylpG] | – | increased luciferase expression in vivo
6 | COC1C(OP(=O)(O)OC[C@H]2O[C@@H](n3cnc4c(=O)[nH]c(N)nc43)C(O)C2O)[C@@H](COP(=O)(O)OP(=O)([O-])OP(=O)(O)OC[C@H]2O[C@@H](n3c[n+](C)c4c(=O)[nH]c(N)nc43)C(O)C2OC)O[C@H]1n1cnc2c(N)ncnc21 (stereo partly drawn) [Compound 29, ^m7G3′OmepppA2′OMepG] | increased in vivo luciferase expression | increased luciferase expression in vivo
7 | CNc1ncnc2c1ncn2[C@@H]1O[C@H](COP(=O)(O)OP(=O)([O-])OP(=O)(O)OC[C@H]2O[C@@H](n3c[n+](C)c4c(=O)[nH]c(N)nc43)C(O)C2OC)C(OP(=O)(O)OC[C@H]2O[C@@H](n3cnc4c(=O)[nH]c(N)nc43)C(O)C2O)C1OC (stereo partly drawn) [Compound 30, ^m7G3′OMeppp^m6A2′OMepG] | increased in vivo luciferase expression | increased luciferase expression in vivo
8 | COC1C(OP(=O)(O)OC[C@H]2O[C@@H](n3cnc4c(=O)[nH]c(N)nc43)C(O)C2O)[C@@H](COP(=O)(O)OP(=O)([O-])OP(=O)(O)OC[C@]23COC(C2O)[C@H](n2c[n+](C)c4c(=O)[nH]c(N)nc42)O3)O[C@H]1n1cnc2c(N)ncnc21 (stereo partly drawn) [Compound 32, ^m7G2′4′LNApppA2′OMepG] | increased in vivo luciferase expression | –
